Experimental data: patent US20230257429A1, “PEPTIDE ADJUVANT FOR ITS THERAPEUTIC APPLICATIONS IN VIRAL AND TUMOUR VACCINE DEVELOPMENT AND CANCER IMMUNOTHERAPY AND AUTOIMMUNE DISEASE DIAGNOSIS AND TREATMENTS” (National University of Singapore, priority 2020, published 2023)
“Also recorded” adds a separate entry of the source. Peptide text beside a SMILES is read from it.

Key:
Assay type in all cases: cell-based, human
red blood cells (RBC) = assay: Hemolytic assay; details: 1 hr at 37° C., normalized to Triton X-100
Protocol: Buffy coats were used as a source of red blood cells (RBC). Buffy coat (2 ml) was washed first in 10 ml of 150 mM NaCl and then washed twice in PBS (pH 7.4) by centrifugation for 5 min at 500 g. The cell pellets were resuspended in 10 ml of PBS as RBC stocks. The different peptides were diluted in PBS (100 μg/ml) and, in triplicates, the peptides were added to V-bottom 96-well plates at 10 μl/well. As controls, the same volumes of PBS or 20% (v/v) Triton X-100 were added. RBC were diluted 50 times in PBS and added to the plates at 190 μl/well. After incubation for 1 hr at 37° C., the plates were centrifuged for 5 min at 500 g. The supernatants (100 μl/well) were transferred to flat bottom plates and absorbance was measured at OD405. Data were normalized to the average OD405 readings obtained with 1% (v/v) Triton X-100 and presented as percentage hemolysis.

dendritic cells (DC) [1] = assay: DC maturation, surface markers by flow cytometry; details: 200 μg/ml, 48 hr
Protocol: In some experiments, to detect surface proteins on cultured DC, cells were harvested at day 6 and re-suspended at 1×10^5/ml in macrophage serum free medium (Thermo Fisher Scientific, cat #12065074). Cells were incubated for 1 hr on ice with fluorescent antibodies specific for CD14 (PE), CD1a (PE), or isotype-matched IgG. Cells were washed and analysed by flow cytometry. The harvested DC were also resuspended in the medium at 5×10^4/ml and cultured for 48 hr with LPS (0.5 μg/ml), P2M6 (200 μg/ml) or, as a control, PBS. Cells were then incubated with fluorescently tagged antibodies specific for MHC class II, CD40, CD80, CD83, CD86, and corresponding isotype controls. Cells were analysed by flow cytometry.
NCL-P2 was previously shown to activate DC as judged by TNFα induction [Wu, S., et al., Cell Death Dis 12: 477 (2021)]. Whether P2+G effectively activates these cells into mature antigen-presenting cells (APC) for effective T cell activation has not been examined. To this end, DC were stimulated for 48 hr with P2+G (200 μg/ml) or, as a positive control, LPS (0.5 μg/ml). As a negative control, DC were cultured without specific stimulation by adding equivalent volumes of PBS. DC were cultured from monocytes and were typically CD14^lo/− CD1a^hi [Cao, W., et al., Blood 107: 2777-2785 (2006)]. Cells were examined for surface expression of MHC class II, CD40, CD80, CD83 and CD86.

PBMC [2] = assay: Peptide binding to and penetration of PBMC, flow cytometry; details: PBMC, peptide 200 μg/ml, 1 hr at 4° C.
Procedure, shortened: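 PBMC (3×10^6/ml, serum-free macrophage medium) incubated 1 h with biotinylated-detected peptides at 200 μg/ml, at 37 °C or 4 °C. Streptavidin-AF488 flow cytometry with viability dye, with or without permeabilization to separate surface binding from internalization; monocytes, T and B cells gated separately.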

PBMC [3] = assay: PBMC activation, TNFα and IL-1β ELISA; details: PBMC stimulated 24 hr, TNFα in media
Protocol: Buffy coat fractions were obtained from healthy blood donors at the Singapore Health Sciences Authority, with Institutional ethics approval, and PBMC were isolated using Ficoll-Paque (GE Healthcare). To isolate monocytes, PBMC were re-suspended to 1×10^7 cells/ml in the RPMI medium contained 5% (v/v) BCS and incubated for 1 hr in T75 flasks (20 ml/flask). Monocytes that adhered were harvested. To culture macrophages and DC [Cao, W., et al., Blood 107: 2777-2785, (2006), incorporated herein by reference], monocytes were resuspended to 1×10^6 cells/ml and cultured in 6-well plates (2 ml/well). Macrophages were cultured by adding M-CSF to 20 ng/ml and DC were cultured with 20 ng/ml GM-CSF and 40 ng/ml IL-4. M-CSF, GM-CSF and IL-4 were obtained from R&D Systems (Mineapolis, Minn.). Cells were cultured for 6 days with half of the media being replenished every two days.
Purified proteins in PBS (30 μg/ml) were coated in triplicates in 96-well plates (50 μl/well) for 12 hr and PBMC (3×10^6 cells/ml), monocytes (1×10^6 cells/ml), macrophages (0.5×10^6 cells/ml) or DC (0.5×10^6 cells/ml) were re-suspended in macrophage serum-free medium containing penicillin and streptomycin and cultured for 24 hr in these plates at 100 μl/well. Where TLR ligands were used to stimulate these cells, they were added to the media: LPS (500 ng/ml for DC and macrophages and 10 ng/ml for PMBC and monocytes, InvivoGen), flagellin (1 μg/ml, InvivoGen), lipoteichic acid (LTA, 10 μg/ml). Cell activation was determined by measuring TNFα and IL-1β in the culture media using ELISA kits (Invitrogen).

dendritic cells (DC) [4] = assay: Dendritic cell penetration, confocal microscopy
Protocol: DC were harvested and cultured overnight on glass coverslips. The cells were first incubated for 1, 5, 15, 30 or 60 min with P2M6 (200 μg/ml) at 4° C. and then fixed in 4% (w/v) paraformaldehyde (PFA) for 20 min. Cells were permeabilized for 30 min in 0.1% (w/v) saponin and then incubated for 1 hr with streptavidin-AF488 (50 μg/ml). Cells were then mounted for imaging analysis. Alternatively, P2M6 was pre-incubated for 1 hr on ice with streptavidin-AF488 at 50 μg/ml and the peptide-streptavidin complexes were at 1/10 dilution incubated with DC for 1, 5, 15, 30 or 60 min at 4° C. and the cells were, after washing, directly mounted without fixation or permeabilization.
In another experiment set up, DC (2×10^5/ml) were incubated for 1 hr at 4° C. with P2M6 at different concentrations (10, 25, 50, 100, or 200 μg/ml). Cells were fixed and permeabilized to incubate for 1 hr with streptavidin-AF488 (50 μg/ml). Cells were washed and mounted for imaging analysis. Alternatively, Different concentrations of P2M6 ([…]) were pre-incubated for 1 hr on ice with streptavidin-AF488 (500 μg/ml). The preformed complexes were at 1/10 dilutions incubated with DC for 1 hr at 4° C. The cells were, after washing, directly mounted without fixation or permeabilization.
All cells were mounted using the VectaShield mounting medium containing DAPI (Vector Laboratories). Cells were analyzed using the FluoView FV3000 confocal microscope equipped with a 100× oil objective (aperture 1.45) and Cool/SNAP HQ2 image acquisition camera (Olympus). Images were captured with the FV-ASW 1.6b software and analyzed using the Imaris software (Bitplane AG).

dendritic cells (DC) [5] = assay: Dendritic cell penetration, confocal microscopy; details: data not shown
[6] = system: autologous CD4 and CD8 T cells; assay: Antigen-loaded DC co-culture with autologous lymphocytes, proliferation; details: DC:T 1:5, 2 weeks co-culture, CellTrace Violet
Protocol: PBMC were isolated from healthy blood donors from which monocytes were isolated to culture DC and the remaining cells (mostly lymphocytes) were stored frozen as a source of autologous lymphocytes. DC were then incubated for 24 hr with P2+G, IPA1E2 or the IPA1E2-P2+G fusion polypeptide (SEQ ID NO: 58) in round bottom 96-well plates (5×10^4 cells/well) without adding additional adjuvants. The frozen lymphocytes were revived and labelled with CellTrace Violet (2.5 μM) for 10 min at 37° C. and then added to the DC wells at 2.5×10^5 cells/well (DC:T ratio=1:5). After 2 weeks of co-culture, the proliferation of CD4+ and CD8+ T cell and CD19+ B cell was analyzed by flow cytometry.

Molecule	haemolysis (red blood cells (RBC))	DC maturation (MHC class II, CD40, CD80, CD83, CD86) (dendritic cells (DC) [1])	CPP activity compared with NCL-P2 (PBMC [2])	CPP activity compared with NCL-P2 (PBMC [2]; listed as P2+G)	adjuvant (alarmin) activity compared with NCL-P2 (PBMC [3])	increase in adjuvant (alarmin) activity compared with NCL-P2 (PBMC [3]) [fold]	carrying cargo protein streptavidin into DC cytoplasm (dendritic cells (DC) [4])	time of incubation within which DC were penetrated (dendritic cells (DC) [4]; 200 μg/ml, 4° C.) [min]	DC penetration over time (dendritic cells (DC) [4]; 1, 5, 15, 30 and 60 min, 4° C.)	DC penetration at 10 μg/ml of P2+G (dendritic cells (DC) [4]; 1 hr at 4° C.)	DC penetration at 25 μg/ml of P2+G (dendritic cells (DC) [4]; 1 hr at 4° C.)	time to saturation of DC penetration (dendritic cells (DC) [4]; P2+G 200 μg/ml, on ice) [min]	intracellular localisation in DC (dendritic cells (DC) [4]; confocal microscopy)	change of intracellular pool in DC with increasing P2+G concentration (dendritic cells (DC) [4]; free peptide 25 to 200 μg/ml, streptavidin-bound 10 to 100 μg/ml)	carrying ovalbumin into DC cytoplasm (dendritic cells (DC) [5])	T cell proliferation / activation induced by peptide-loaded DC [6]
CC[C@H](C)[C@H](NC(=O)[C@H](CCCNC(=N)N)NC(=O)[C@H](CCCNC(=N)N)NC(=O)[C@H](CCCNC(=N)N)NC(=O)[C@H](CC(C)C)NC(=O)[C@@H](NC(=O)[C@@H](NC(=O)[C@H](CC(C)C)NC(=O)[C@@H](N)CC(C)C)[C@@H](C)CC)[C@@H](C)CC)C(=O)N[C@@H](CCCNC(=N)N)C(=O)N[C@@H](CCCCN)C(=O)N[C@@H](CCC(N)=O)C(=O)N[C@@H](C)C(=O)N[C@@H](Cc1c[nH]cn1)C(=O)N[C@@H](C)C(=O)N[C@@H](Cc1c[nH]cn1)C(=O)N[C@@H](CO)C(=O)N[C@@H](CCCCN)C(=O)O [CPP5, LLIILRRRIRKQAHAHSK] (H-LLIILRRRIRKQAHAHSK-OH)	clearly haemolytic	–	–	–	–	–	–	–	–	–	–	–	–	–	–	–
GGFGGRGGGRGGRGGFGGRGGRGGFGGRGGFRGGRGG (NCL-P2+G)	–	effectively activated DC maturation	slightly higher CPP activity	slightly increased their CPP activities	significantly higher alarmin activity	3	can carry cargo proteins across the cell membrane into the cytoplasm; also recorded: carry a cargo protein streptavidin into the DC cytoplasm	≤ 1	increased progressively from 5 to 60 min	not detectable; also recorded: no detectable DC penetration	low level of DC penetration	30	penetrated into the nucleoli faster than it penetrated into the cytoplasm	increased following increasing concentrations	carried ovalbumin into DC cytoplasm	might not induce significant T cell activation to itself
